In patent US6677450B2, “Topoisomerase inhibitors” (Bristol-Myers Squibb Company, priority 2000, dated 2004):
Like-named read-outs stand apart in the source and are kept apart here.

Assays:
[1] = molecular target: T1, purified human topoisomerase I (Homo sapiens, UniProt P11387); assay: Topoisomerase I activity (in vitro): compound-induced, topoisomerase I-mediated single strand breaks in PM2 DNA; type: biochemical; settings: 30 minutes at 37° C., agarose gel densitometry, read-out: EC50 (median effective concentration for inducing topoisomerase I-mediated single strand breaks in DNA)
T1 construct: purchased Topogen
T1 sequence (P11387 1-765): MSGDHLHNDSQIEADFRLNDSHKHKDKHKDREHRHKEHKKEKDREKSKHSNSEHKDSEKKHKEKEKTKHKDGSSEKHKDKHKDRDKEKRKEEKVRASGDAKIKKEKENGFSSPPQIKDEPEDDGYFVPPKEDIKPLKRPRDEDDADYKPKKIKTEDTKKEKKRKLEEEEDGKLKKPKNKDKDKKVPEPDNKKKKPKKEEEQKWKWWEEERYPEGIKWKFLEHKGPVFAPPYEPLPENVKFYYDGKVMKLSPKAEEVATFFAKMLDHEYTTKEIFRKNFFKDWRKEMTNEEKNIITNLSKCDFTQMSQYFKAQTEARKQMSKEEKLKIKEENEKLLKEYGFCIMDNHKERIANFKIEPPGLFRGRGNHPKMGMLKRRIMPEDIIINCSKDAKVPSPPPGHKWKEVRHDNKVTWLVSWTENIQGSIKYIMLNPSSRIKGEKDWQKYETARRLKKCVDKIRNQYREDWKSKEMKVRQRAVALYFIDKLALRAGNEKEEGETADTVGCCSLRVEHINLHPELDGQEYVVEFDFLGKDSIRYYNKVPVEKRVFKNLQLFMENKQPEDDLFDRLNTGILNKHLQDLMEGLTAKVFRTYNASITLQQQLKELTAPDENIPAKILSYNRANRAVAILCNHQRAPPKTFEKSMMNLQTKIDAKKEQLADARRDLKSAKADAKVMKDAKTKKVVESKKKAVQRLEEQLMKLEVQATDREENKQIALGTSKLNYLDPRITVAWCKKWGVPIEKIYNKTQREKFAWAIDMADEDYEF
Description: Topoisomerase I Activity (In Vitro)
Topoisomerase I activity was measured as described below: The procedure for assaying compound-induced, topoisomerase I-mediated single strand breaks in DNA was essentially that described by Hsiang, et al., (J. Biol Chem. 1985, 260, 14873-14878). Samples dissolved in 100% DMSO as either 10 μM or 10 mg/ml solutions, unless otherwise stated, were diluted in Tris-EDTA buffer. Marine bacteriophage PM2 DNA (Boehringer Mannheim) was also diluted in Tris-EDTA buffer to a concentration of 0.02 μg/μl. Different dilutions of the compound being evaluated were mixed with diluted DNA and this mixture was added to 1000 unit (one unit of enzyme activity is defined as the amount capable of relaxing 100 ng of supercoiled DNA in approximately 30 minutes at 37° C.) aliquots of purified human topoisomerase I (Topogen) in 2× reaction buffer to start the reaction. The compound-DNA-enzyme mixture was incubated for 30 minutes at 37° C. before stopping the reaction with warm stop buffer containing sodium dodecyl sulfate and proteinase K (Sigma). These mixtures were allowed to incubate at 37° C. for another 10 minutes, at which time the mixtures were removed from the waterbath and extracted with a 24:1 mixture of chloroform/isoamyl alcohol. Following centrifugation, aliquots of the aqueous phases were placed in wells of a 0.9% agarose (SeaKem) gel in Tris-borate buffer containing 0.5 μg/ml of ethidium bromide and subjected to electrophoresis for 15 hours to separate the different topological isomers and nicked and broken DNAs. After destaining the gel in water, the ethidium bromide stained DNA reaction products were visualized by exposing the gel to UV irradiation. Negatives of the photographs of the irradiated gels were scanned with a densitometer and areas under the peaks were calculated in order to obtain percent single strand DNA break formation for each sample. A median effective concentration (EC50) was obtained for each compound by interpolation between points of the resulting dose-effect curve which defines the potency of the compound for its effect in inducing topoisomerase I-mediated single strand breaks in DNA.
The topoisomerase I activity for certain compounds of the present invention is shown below in Table I.

[2] = tested on: murine P388 cell line; assay: In vitro cell-based cytotoxicity: proliferation inhibition, XTT tetrazolium assay; settings: P388 cells, 72 h at 37° C., XTT absorbance at 450 nm, read-out: IC50 (drug concentration required to inhibit cell proliferation to 50% of untreated control cells)
Description: In Vitro Cell-Based Cytotoxicity Activity
The proliferation inhibition activity against murine P388 cell line was measured as follows. Evaluation of a soluble tetrazolium/formazan assay for cell growth and drug sensitivity in culture, using human and other tumor cell lines, was done according to the procedure described in Cancer Res. 1988, 48, 4827-4833. Cells were plated at 4000 cells/well in 96 well microtiter plates and 24 h later drugs were added and serially diluted. The cells were incubated at 37° C. for 72 h, at which time a tetrazolium dye, XTT, containing phenazine methosulfate was added. A dehydrogenase enzyme in live cells reduced the XTT to a form that absorbs light at 450 nm, which could be quantitated spectrophotometrically. The greater the absorbance the greater the number of live cells. The results are expressed as an IC50, which is the drug concentration required to inhibit cell proliferation (i.e., absorbance at 450 nm) to 50% of that of untreated control cells.

Compound | EC50 [1] [nM] | melting point | IC50 ([2]; Mus musculus) [nM] | IC50 [2] [nM]
O=C1NC(=O)c2c1c1c3cc(F)ccc3n3c1c1c2c2cc(F)ccc2n1[C@@H]1O[C@H](CO)[C@@H](O)[C@H](O)[C@@H]13 [Example 28, 3,9-Difluoro-12,13-[1,2-β-D-glucopyranosyl]-6,7,12,13-tetrahydro(5H)-indolo-[2,3-a]pyrrolo[3,4-c]carbazole-5,7-dione] | 120 |  | 347 | 
O=C1NC(=O)c2c1c1c3cc(F)c(F)cc3n3c1c1c2c2cc(F)c(F)cc2n1C1OC(C3)C(F)(F)C(O)C1O [Example 9, 2,3,9,10-Tetrafluoro-12,13-[1,6-(4-deoxy-4,4-difluoro-β-D-glucopyranosyl)]-6,7,12,13-tetrahydro(5H)indolo[2,3-a]pyrrolo[3,4-c]carbazole-5,7-dione] | > 100000 |  | 21 | 
O=C1NC(=O)c2c1c1c3ccc(F)cc3n3c1c1c2c2ccc(F)cc2n1C1OC(C3)C(F)C(O)C1O [Example 11, 2,10-Difluoro-12,13-[1,6-(4-deoxy-4-fluoro-β-D-glucopyranosyl)]-6,7,12,13-tetrahydro(5H)indolo[2,3-a]pyrrolo[3,4-c]carbazole-5,7-dione] | 3300 | 315 °C (dec.) | 21 | 
COC1C2Cn3c4c(Cl)cccc4c4c5c(c6c7cccc(Cl)c7n(c6c43)C(O2)C(O)C1O)C(=O)NC5=O [Example 7, 1,11-Dichloro-12,13-[1,6-(4-O-methyl-β-D-glucopyranosyl)]-6,7,12,13-tetrahydro(5H)indolo[2,3-a]pyrrolo[3,4-c]carbazole-5,7-dione] | > 100000 |  | 460 | 
2,3,9,10-Tetrafluoro-12,13-[1,5-(6-deoxy-β-D-glucopyranosyl)]-6,7,12,13-tetrahydro(5H)indolo[2,3-a]pyrrolo[3,4-c]carbazole-5-one and 2,3,9,10-Tetrafluoro-12,13-[1,5-(6-deoxy-β-D-glucopyranosyl)]-6,7,12,13-tetrahydro(5H)-indolo[2,3-a]pyrrolo[3,4-c]carbazole-7-one [Example 23] | 2100 |  |  | 240
O=C1NC(=O)c2c1c1c3cc(F)c(F)cc3n3c1c1c2c2cc(F)c(F)cc2n1[C@@H]1OC(CO)[C@H]3C(O)C1O (stereo partly drawn) [Example 13, 2,3,9,10-Tetrafluoro-12,13-(1,4-β-D-galactopyranosyl)-6,7,12,13-tetrahydro(5H)indolo[2,3-a]pyrrolo[3,4-c]carbazole-5,7-dione] | 8200 |  | 2800 | 
O=C1NC(=O)c2c1c1c3cc(F)c(F)cc3n3c1c1c2c2cc(F)c(F)cc2n1C1OC(CC(O)C1O)C3 [Example 4, 2,3,9,10-Tetrafluoro-12,13-[1,6-(4-deoxy-β-D-glucopyranosyl)]-6,7,12,13-tetrahydro(5H)indolo[2,3-a]pyrrolo[3,4-c]carbazole-5,7-dione] | 5600 |  | 70 | 
O=C1NC(=O)c2c1c1c3cc(F)c(F)cc3n3c1c1c2c2cc(F)c(F)cc2n1C1OC(C3)C(F)C(O)C1O [Example 8, 2,3,9,10-Tetrafluoro-12,13-[1,6-(4-deoxy-4-fluoro-β-D-glucopyranosyl)]-6,7,12,13-tetrahydro(5H)indolo[2,3-a]pyrrolo[3,4-c]carbazole-5,7-dione] | 620 |  | 26 | 
O=C1NC(=O)c2c1c1c3cc(F)ccc3n3c1c1c2c2cc(F)ccc2n1[C@@H]1O[C@H](CO)[C@H](O)[C@H](O)[C@@H]13 [Example 25, 3,9-Difluoro-12,13-[1,2-β-D-galactopyranosyl]-6,7,12,13-tetrahydro(5H)-indolo-[2,3-a]pyrrolo[3,4-c]carbazole-5,7-dione] | 110 |  | 14.2 | 
O=C1NC(=O)c2c1c1c3cc(F)c(F)cc3n3c1c1c2c2cc(F)c(F)cc2n1C1OC(C3)C(O)CC1O [Example 5, 2,3,9,10-Tetrafluoro-12,13-[1,6-(3-deoxy-β-D-glucopyranosyl)]-6,7,12,13-tetrahydro(5H)indolo[2,3-a]pyrrolo[3,4-c]carbazole-5,7-dione] | 680 |  | 23 | 
C[C@]12O[C@H]([C@H](O)[C@@H](O)[C@@H]1O)n1c3cc(F)c(F)cc3c3c4c(c5c6cc(F)c(F)cc6n2c5c31)C(=O)NC4=O [Example 21] | 290 |  | 140 | 

Further lines, with some results ahead:

EC50 [1] [nM] | melting point | Compound | IC50 ([2]; Mus musculus) [nM] | IC50 [2] [nM]
2900 |  | O=C1NC(=O)c2c1c1c3cc(F)c(F)cc3n3c1c1c2c2cc(F)c(F)cc2n1[C@@H]1OC(CF)[C@H]3C(O)C1O (stereo partly drawn) [Example 16, 2,3,9,10-Tetrafluoro-12,13-[1,4-(6-deoxy-6-fluoro-β-D-galactopyranosyl)]-6,7,12,13-tetrahydro(5H)indolo[2,3-a]pyrrolo[3,4-c]carbazole-5,7-dione] | 3300 | 
350 |  | O=C1NC(=O)c2c1c1c3cc(F)c(F)cc3n3c1c1c2c2cc(F)c(F)cc2n1C1OC(C3)C(O)C(O)C1O [Example 3, 2,3,9,10-Tetrafluoro-12,13-(1,6-β-D-glucopyranosyl)-6,7,12,13-tetrahydro(5H)indolo[2,3-a]pyrrolo[3,4-c]carbazole-5,7-dione] | 50 | 
36 |  | O=C1NC(=O)c2c1c1c3cc(F)ccc3n3c1c1c2c2cc(F)ccc2n1C1OC(C3)C(O)C(O)C1O (centres unmarked) [Example 27] | 51.1 | 
320 |  | O=C1NC(=O)c2c1c1c3cc(F)c(F)cc3n3c1c1c2c2cc(F)c(F)cc2n1[C@@]1(CO)O[C@@H]3[C@H](O)[C@@H](O)[C@@H]1O [Example 22, 2,3,9,10-Tetrafluoro-12,13-(1,5-β-D-glucopyranosyl)-6,7,12,13-tetrahydro(5H)indolo[2,3-a]pyrrolo[3,4-c]carbazole-5,7-dione] | 86 | 
28 |  | O=C1NC(=O)c2c1c1c3cc(F)ccc3n3c1c1c2c2cc(F)ccc2n1C1OC(C3)C(F)C(O)C1O [Example 26, 3,9-Difluoro-12,13-[1,6-(4-deoxy-4-fluoro-β-D-glucopyranosyl)]-6,7,12,13-tetrahydro(5H)indolo[2,3-a]pyrrolo[3,4-c]carbazole-5,7-dione] | 3 | 
> 100000 |  | O=C1NC(=O)c2c1c1c3cc(F)c(F)cc3n3c1c1c2c2cc(F)c(F)cc2n1C1OC(C3)C(O)C(F)C1O [Example 6, 2,3,9,10-Tetrafluoro-12,13-[1,6-(3-deoxy-3-fluoro-β-D-glucopyranosyl)]-6,7,12,13-tetrahydro(5H)indolo[2,3-a]pyrrolo[3,4-c]carbazole-5,7-dione] | 7700 | 
450 | > 300 °C | O=C1NC(=O)c2c1c1c3ccc(F)cc3n3c1c1c2c2ccc(F)cc2n1C1OC(C3)C(O)C(O)C1O [Example 10, 2,10-Difluoro-12,13-[1,6-β-D-glucopyranosyl]-6,7,12,13-tetrahydro(5H)indolo-[2,3-a]pyrrolo[3,4-c]carbazole-5,7-dione] | 130 | 
